Source: US20230077362A1 (CORTEVA AGRISCIENCE LLC, priority 2019, published 2023)
Where two headings read alike, the source gives them in different places.

Legend:
Format in all cases: in vivo
[1] = system: Beet Armyworm (Spodoptera exigua) ("BAW"), second instar larvae; experiment: Bioassay on beet armyworm (BAW), 128-well diet tray assay; conditions: Spodoptera exigua
Summary of the method: (§1)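 Each value represents average percent mortality from eight wells. Larvae were kept in clear-covered trays at 25° C. for five to seven days on a 14-hour light, 10-hour dark schedule before scoring.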

[2] = system: Cabbage Looper (Trichoplusia ni) ("CL"), second instar larvae; experiment: Bioassay on cabbage looper (CL), 128-well diet tray assay; conditions: Trichoplusia ni
Summary of the method: as §1

[3] = system: Green Peach Aphid ("GPA") (Myzus persicae), wingless adult and nymph stages; experiment: Bioassay on green peach aphid (GPA), foliar spray on infested cabbage seedlings; conditions: Myzus persicae, foliar, 72 h
Summary of the method: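 Values are corrected % control, 100*(X−Y)/X, from live aphid counts per plant under a microscope, treated versus solvent-check plants. Four infested seedlings (20-50 GPA each) per treatment were sprayed to runoff and kept three days near 25° C at ambient RH.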

[4] = read-out: BAW (Biological Results, rating)
[5] = read-out: CL (Biological Results, rating)
[6] = read-out: GPA (Biological Results, rating)

Compound | pest or weed control at 50 µg/cm2 [1, 4] [%] | pest or weed control at 50 µg/cm2 [2, 5] [%] | pest or weed control at 200 µg/mL [3, 6] [%] | pest or weed control at 50 µg/cm2 ([1]; read-out: BAW rating) [%] | pest or weed control at 50 µg/cm2 ([2]; read-out: CL rating) [%] | pest or weed control at 200 µg/mL ([3]; read-out: GPA rating) [%]
COc1ccc(C(C)C)c(N2C(=O)CS/C2=N\C(=O)Nc2ccc(-c3ncn(-c4ccc(C)cc4)n3)cc2F)c1 [Compound J149, (Z)-1-(2-Fluoro-4-(1-(p-tolyl)-1H-1,2,4-triazol-3-yl)phenyl)-3-(3-(2-isopropyl-5-methoxyphenyl)-4-oxothiazolidin-2-ylidene)urea] | 50 to 100 | 50 to 100 | 0 to 80 |  |  | 
Cc1ccc(COCC(F)(F)F)c(N2C(=O)CS/C2=N\C(=O)Nc2ccc(-c3ncn(-c4ccc(OC(F)(F)F)cc4)n3)cc2C)c1 [Compound J139, (Z)-1-(3-(5-Methyl-2-((2,2,2-trifluoroethoxy)methyl)phenyl)-4-oxothiazolidin-2-ylidene)-3-(2-methyl-4-(1-(4-(trifluoromethoxy)phenyl)-1H-1,2,4-triazol-3-yl)phenyl)urea] | 50 to 100 | 50 to 100 | 0 to 80 |  |  | 
Cc1ccc(C(C)C)c(N2C(=O)CS/C2=N\C(=O)Nc2ccc(-c3ncn(-c4cccc(OC(F)(F)F)c4)n3)cc2C)c1 [Compound J135, (Z)-1-(3-(2-Isopropyl-5-methylphenyl)-4-oxothiazolidin-2-ylidene)-3-(2-methyl-4-(1-(3-(trifluoromethoxy)phenyl)-1H-1,2,4-triazol-3-yl)phenyl)urea] | 50 to 100 | 50 to 100 | 0 to 80 |  |  | 
COc1ccc(C(C)C)c(N2C(=O)CS/C2=N\C(=O)Nc2ccc(-c3ncn(-c4cccc(OC(F)(F)F)c4)n3)cc2F)c1 [Compound J154, (Z)-1-(2-Fluoro-4-(1-(3-(trifluoromethoxy)phenyl)-1H-1,2,4-triazol-3-yl)phenyl)-3-(3-(2-isopropyl-5-methoxyphenyl)-4-oxothiazolidin-2-ylidene)urea] | 50 to 100 | 50 to 100 | 0 to 80 |  |  | 
CCOC(C)c1ccc(C)cc1N1C(=O)CS/C1=N\C(=O)Nc1ccc(-c2ncn(-c3ccc(OC(F)(F)F)cc3)n2)cc1C (stereo not drawn) [Compound J141, (Z)-1-(3-(2-(1-Ethoxyethyl)-5-methylphenyl)-4-oxothiazolidin-2-ylidene)-3-(2-methyl-4-(1-(4-(trifluoromethoxy)phenyl)-1H-1,2,4-triazol-3-yl)phenyl)urea] | 50 to 100 | 50 to 100 | 0 to 80 |  |  | 
COc1ccc(-n2cnc(-c3ccc(NC(=O)/N=C4\SCC(=O)N4c4cc(N(C)C)ccc4C(C)C)c(F)c3)n2)cc1 [Compound J146, (Z)-1-(3-(5-(Dimethylamino)-2-isopropylphenyl)-4-oxothiazolidin-2-ylidene)-3-(2-fluoro-4-(1-(4-methoxyphenyl)-1H-1,2,4-triazol-3-yl)phenyl)urea] | 50 to 100 | 50 to 100 | 0 to 80 |  |  | 
COC(C)c1ccc(C)cc1N1C(=O)CS/C1=N\C(=O)Nc1ccc(-c2ncn(-c3cccc(OC(F)(F)F)c3)n2)cc1F (stereo not drawn) [Compound J120, (Z)-1-(2-Fluoro-4-(1-(3-(trifluoromethoxy)phenyl)-1H-1,2,4-triazol-3-yl)phenyl)-3-(3-(2-(1-methoxyethyl)-5-methylphenyl)-4-oxothiazolidin-2-ylidene)urea] | 50 to 100 | 50 to 100 | 0 to 80 |  |  | 
COC(C)c1ccc(C)cc1N1C(=O)CS/C1=N\C(=O)Nc1ccc(-c2ncn(-c3ccc(C#N)cc3)n2)cc1F (stereo not drawn) [Compound J291, (Z)-1-(4-(1-(4-Cyanophenyl)-1H-1,2,4-triazol-3-yl)-2-fluorophenyl)-3-(3-(2-(1-methoxyethyl)-5-methylphenyl)-4-oxothiazolidin-2-ylidene)urea] | 50 to 100 | 50 to 100 | 0 to 80 |  |  | 
COc1ccc(C(C)C)c(N2C(=O)CS/C2=N\C(=O)Nc2ccc(-c3ncn(-c4cccc(C(F)(F)F)c4)n3)cc2F)c1 [Compound J152, (Z)-1-(2-Fluoro-4-(1-(3-(trifluoromethyl)phenyl)-1H-1,2,4-triazol-3-yl)phenyl)-3-(3-(2-isopropyl-5-methoxyphenyl)-4-oxothiazolidin-2-ylidene)urea] | 50 to 100 | 50 to 100 | 0 to 80 |  |  | 
Cc1ccc(C(C)C)c(N2C(=O)CS/C2=N\C(=O)Nc2ccc(-c3ncn(-c4ccc(SC(F)(F)F)cc4)n3)cc2Cl)c1 [Compound J231, (Z)-1-(2-Chloro-4-(1-(4-((trifluoromethyl)thio)phenyl)-1H-1,2,4-triazol-3-yl)phenyl)-3-(3-(2-isopropyl-5-methylphenyl)-4-oxothiazolidin-2-ylidene)urea] | 50 to 100 | 50 to 100 | 0 to 80 |  |  | 
COc1ccc(C(C)C)c(N2C(=O)CS/C2=N\C(=O)Nc2ccc(-c3ncn(-c4cccc(C(F)(F)F)c4)n3)cc2)c1 [Compound J324, (Z)-1-(3-(2-Isopropyl-5-methoxyphenyl)-4-oxothiazolidin-2-ylidene)-3-(4-(1-(3-(trifluoromethyl)phenyl)-1H-1,2,4-triazol-3-yl)phenyl)urea] | 50 to 100 | 50 to 100 | 0 to 80 |  |  | 
CC(C)c1ccc(N(C)C)cc1N1C(=O)CS/C1=N\C(=O)Nc1ccc(-c2ncn(-c3ccc(OC(F)(F)F)cc3)n2)cc1 [Compound J319, (Z)-1-(3-(5-(Dimethylamino)-2-isopropylphenyl)-4-oxothiazolidin-2-ylidene)-3-(4-(1-(4-(trifluoromethoxy)phenyl)-1H-1,2,4-triazol-3-yl)phenyl)urea] | 50 to 100 | 50 to 100 | 0 to 80 |  |  | 
CCCc1ccc(N(C)C)cc1N1C(=O)CS/C1=N\C(=O)Nc1ccc(-c2ncn(-c3ccc(OC(F)(F)F)cc3)n2)cc1F [Compound J196, (Z)-1-(3-(5-(Dimethylamino)-2-propylphenyl)-4-oxothiazolidin-2-ylidene)-3-(2-fluoro-4-(1-(4-(trifluoromethoxy)phenyl)-1H-1,2,4-triazol-3-yl)phenyl)urea] | 50 to 100 | 50 to 100 | 0 to 80 |  |  | 
Cc1ccc(C(C)C)c(N2C(=O)CS/C2=N\C(=O)Nc2ccc(-c3ncn(-c4cccc(OC(F)(F)F)c4)n3)cc2F)c1 [Compound J143, (Z)-1-(2-Fluoro-4-(1-(3-(trifluoromethoxy)phenyl)-1H-1,2,4-triazol-3-yl)phenyl)-3-(3-(2-isopropyl-5-methylphenyl)-4-oxothiazolidin-2-ylidene)urea] | 50 to 100 | 50 to 100 | 0 to 80 |  |  | 
COc1ccc(-n2cnc(-c3ccc(NC(=O)/N=C4\SCC(=O)N4c4cc(OC)ccc4C(C)C)c(F)c3)n2)cc1 [Compound J145, (Z)-1-(2-Fluoro-4-(1-(4-methoxyphenyl)-1H-1,2,4-triazol-3-yl)phenyl)-3-(3-(2-isopropyl-5-methoxyphenyl)-4-oxothiazolidin-2-ylidene)urea] | 50 to 100 | 50 to 100 | 0 to 80 |  |  | 
N#Cc1ccc(OCCC(F)(F)F)c(N2C(=O)CS/C2=N\C(=O)Nc2ccc(-c3ncn(-c4ccc(OC(F)(F)F)cc4)n3)cc2F)c1 [Compound J103, (Z)-1-(3-(5-Cyano-2-(3,3,3-trifluoropropoxy)phenyl)-4-oxothiazolidin-2-ylidene)-3-(2-fluoro-4-(1-(4-(trifluoromethoxy)phenyl)-1H-1,2,4-triazol-3-yl)phenyl)urea] | 50 to 100 | 50 to 100 | 0 to 80 |  |  | 
Cc1ccc(COCC(F)(F)F)c(N2C(=O)CS/C2=N\C(=O)Nc2ccc(-c3ncn(-c4ccc(C(F)F)cc4)n3)cc2F)c1 [Compound J686, (Z)-1-(4-(1-(4-(Difluoromethyl)phenyl)-1H-1,2,4-triazol-3-yl)-2-fluorophenyl)-3-(3-(5-methyl-2-((2,2,2-trifluoroethoxy)methyl)phenyl)-4-oxothiazolidin-2-ylidene)urea] |  |  |  | 50 to 100 | 50 to 100 | 0 to 80
CC(C)c1ccccc1N1C(=O)CS/C1=N\C(=O)Nc1ccc(-c2ncn(-c3ccc(OC(F)(F)F)cc3)n2)cc1F [Compound J86, (Z)-1-(2-Fluoro-4-(1-(4-(trifluoromethoxy)phenyl)-1H-1,2,4-triazol-3-yl)phenyl)-3-(3-(2-isopropylphenyl)-4-oxothiazolidin-2-ylidene)urea] | 50 to 100 | 50 to 100 | 0 to 80 |  |  | 
CCCc1ccc(OCC)cc1N1C(=O)CS/C1=N\C(=O)Nc1ccc(-c2ncn(-c3ccc(OC(F)(F)F)cc3)n2)cc1F [Compound J169, (Z)-1-(3-(5-Ethoxy-2-propylphenyl)-4-oxothiazolidin-2-ylidene)-3-(2-fluoro-4-(1-(4-(trifluoromethoxy)phenyl)-1H-1,2,4-triazol-3-yl)phenyl)urea] | 50 to 100 | 50 to 100 | 0 to 80 |  |  | 
Cc1ccc(C(C)C)c(N2C(=O)CS/C2=N\C(=O)Nc2ccc(-c3ncn(-c4cccc(OC(F)(F)F)c4)n3)cc2)c1 [Compound J327, (Z)-1-(3-(2-Isopropyl-5-methylphenyl)-4-oxothiazolidin-2-ylidene)-3-(4-(1-(3-(trifluoromethoxy)phenyl)-1H-1,2,4-triazol-3-yl)phenyl)urea] | 50 to 100 | 50 to 100 | 0 to 80 |  |  | 
